Measurements: doi:10.1101/2024.08.25.609621 (bioRxiv, 2024)
“And” between values parts separate entries of the source, which are not always exact repeats. Equal values may be shown once. Read-outs that look alike come from different tables or passages of the source.

Legend:
[1] = target: SARS-CoV-2 NSP3 macrodomain (Mac1) (Severe acute respiratory syndrome coronavirus 2, UniProt P0DTD1); experiment: biochemical; assay type: binding; conditions: for SARS CoV-2 macrodomain HTRF assay: Hillslope: dose-response fit
[2] = target: SARS-CoV-2 NSP3 macrodomain (Mac1), P43 crystal form (Severe acute respiratory syndrome coronavirus 2, UniProt P0DTD1); assay type: binding; conditions: for 1-BDC: PanDDA background density correction; for Total number of conformations: ligand conformations modeled in Mac1 crystal structure; for X-ray crystallography: Binding site: site where the ligand is bound in the X-ray crystal structure
[3] = Single dose, 200 μM, mean of three technical replicates, read-out: Average % competition
[4] = preliminary screen, compound at 200 μM, mean of 3-4 technical replicates, read-out: % competition in HTRF assay
[5] = TRUE = crystal structure with ligand determined
[6] = crystal soak concentration 10 mM, event 1
[7] = crystal soak concentration 10 mM, P43 crystals
[8] = crystal soak concentration 10 mM
[9] = crystal soak concentration 20 mM
[10] = crystal soak concentration 20 mM, event 1
[11] = crystal soak concentration 20 mM, P43 crystals
[12] = occupancy estimate from PanDDA 1-BDC
[13] = site of Mac1 where ligand bound in crystal structure
[14] = Dose-response, SARS CoV-2 macrodomain HTRF assay
[15] = Single dose, 200 μM, mean of three technical replicates
[16] = crystal soak concentration 3 mM, P43 crystals
[17] = crystal soak concentration 3 mM
[18] = Single dose, concentration 200 μM, read-out: SARS CoV-2 macrodomain HTRF assay: Average % competition
[19] = crystal soak, soak concentration 10 mM
[20] = crystal soak, soak concentration 10 mM, TRUE = ligand hit
[21] = SARS CoV-2 macrodomain HTRF assay, dose-response, read-out: IC50
[22] = X-ray crystal structure determined (TRUE)
[23] = site of ligand in X-ray crystal structure
[24] = SARS CoV-2 macrodomain HTRF assay, dose-response
[25] = Single dose, concentration 200 μM, read-out: Average % competition
[26] = crystal soak 10 mM, P43 crystals

O=C(Nc1ccsc1C(=O)O)c1ccc2c(c1)OCO2 [AVI-316]
IC50 ([1]; Dose-response, SARS CoV-2 macrodomain HTRF assay, read-out: IC50): > 1000 µM
inhibition at 200 µM [1, 3]: 29%
inhibition at 200 µM [1, 4]: 29%
1-BDC [2]: 0.07
X-ray crystal structure [2, 5]: TRUE
PanDDA run, DMSO background map: 1-BDC [2, 6]: 0.07
Pandda run, overall: Hit [2, 7]: TRUE
Pandda run, overall: Modeled [2, 7]: TRUE
PanDDA run, DMSO background map: Hit [2, 8]: TRUE
PanDDA run, DMSO background map: Modeled [2, 8]: TRUE
PanDDA run, DMSO background map: Hit [2, 9]: TRUE
PanDDA run, DMSO background map: 1-BDC [2, 10]: 0.12
Pandda run, overall: Hit [2, 11]: TRUE
Pandda run, overall: Modeling comment [2, 11]: Duplicate, not modeled
Total number of conformations [2]: 1
2*(1-BDC) (%) [2, 12]: 14%
Binding site [2, 13]: Adenosine

Cc1sc2ncnc(Sc3ccccc3C(=O)O)c2c1C [AVI-317]
inhibition at 200 µM [1, 3]: 24%
inhibition at 200 µM [1, 4]: 24%
PanDDA run, DMSO background map: 1-BDC ([2]; event 1): 0.18
1-BDC [2]: 0.15
X-ray crystal structure [2, 5]: TRUE
PanDDA run, DMSO background map: 1-BDC [2, 6]: 0.17 and 0.15
Pandda run, overall: Hit [2, 7]: TRUE
Pandda run, overall: Modeled [2, 7]: TRUE
Pandda run, overall: Modeling comment [2, 7]: Duplicate, not modeled
PanDDA run, DMSO background map: Hit [2, 8]: TRUE
PanDDA run, DMSO background map: Modeled [2, 8]: TRUE
Total number of conformations [2]: 2
2*(1-BDC) (%) [2, 12]: 30%
Binding site [2, 13]: Adenosine

CC(CNC(=O)c1ccc2c(c1)CCC(=O)N2)C(=O)O (centres unmarked) [AVI-328]
Hill slope [1, 14]: 1.3
Hill slope ([1]; HTRF dose-response fit, Mac1): 1.3
inhibition at 200 µM [1, 3]: 50%
inhibition at 200 µM [1, 4]: 50%
PanDDA run, DMSO background map: 1-BDC ([2]; event 1): 0.25
1-BDC [2]: 0.11
X-ray crystal structure [2, 5]: TRUE
PanDDA run, DMSO background map: 1-BDC [2, 6]: 0.11 and 0.1
Pandda run, overall: Hit [2, 7]: TRUE
Pandda run, overall: Modeled [2, 7]: TRUE
Pandda run, overall: Modeling comment [2, 7]: Duplicate, not modeled
PanDDA run, DMSO background map: Hit [2, 8]: TRUE
PanDDA run, DMSO background map: Modeled [2, 8]: TRUE
Total number of conformations [2]: 2
2*(1-BDC) (%) [2, 12]: 22%
Binding site [2, 13]: Adenosine

Cc1ccc2c(c1)CC[C@@H](C(=O)Nc1nnc3n1CCCC3)O2 [AVI-329]
Average % competition [1, 15]: 9%
PanDDA run, DMSO background map: 1-BDC ([2]; event 1): 0.17
1-BDC [2]: 0.07
X-ray crystal structure [2, 5]: TRUE
Pandda run, overall: Hit [2, 16]: TRUE
Pandda run, overall: Modeled [2, 16]: TRUE
Pandda run, overall: Modeling comment [2, 16]: Duplicate, not modeled
PanDDA run, DMSO background map: Hit [2, 17]: TRUE
PanDDA run, DMSO background map: Modeled [2, 17]: TRUE
PanDDA run, DMSO background map: 1-BDC ([2]; crystal soak concentration 3 mM, event 1): 0.08 and 0.07
Total number of conformations [2]: 1
2*(1-BDC) (%) [2, 12]: 14%
Binding site [2, 13]: Distal

CC1CC(C(=O)O)CN(C(=O)CSc2ccc(O)cc2)C1 (centres unmarked) [AVI-334]
Average % competition [1, 15]: 25%
PanDDA run, DMSO background map: 1-BDC ([2]; event 1): 0.12
PanDDA run, DMSO background map: 1-BDC [2, 6]: 0.07
Pandda run, overall: Hit [2, 7]: TRUE
Pandda run, overall: Modeling comment [2, 7]: Weak density, not modeled
PanDDA run, DMSO background map: Hit [2, 8]: TRUE

O=C1CCc2cc(C(=O)N3CC(C(=O)O)CCC34CCCC4)c(F)cc2N1 (centres unmarked) [AVI-338]
Hill slope [1, 14]: 1.5
Hill slope ([1]; HTRF dose-response fit, Mac1): 1.5
inhibition at 200 µM [1, 3]: 23%
inhibition at 200 µM [1, 4]: 23%
Occupancy difference (refined_occupancy - 2*(1-BDC)) [2]: 0
Refined ligand occupancy (%) [2]: 14%
1-BDC [2]: 0.07
X-ray crystal structure [2, 5]: TRUE
PanDDA run, DMSO background map: Hit [2, 9]: TRUE
PanDDA run, DMSO background map: Modeled [2, 9]: TRUE
PanDDA run, DMSO background map: 1-BDC [2, 10]: 0.07
Pandda run, overall: Hit [2, 11]: TRUE
Pandda run, overall: Modeled [2, 11]: TRUE
Total number of conformations [2]: 1
2*(1-BDC) (%) ([2]; occupancy estimate from PanDDA BDC): 14%
Binding site [2, 13]: Adenosine

OC[C@@H]1C[C@H](O)CN1c1ncnc2[nH]ccc12 [AVI-610]
Hill slope ([1]; HTRF dose-response fit, Mac1): 1.2
inhibition at 200 µM [1, 18]: 56%
SARS CoV-2 macrodomain HTRF assay: Hillslope [1]: 1.2
inhibition at 200 µM [1, 4]: 56%
1-BDC [2]: 0.21
Pandda run, overall: Modeled [2, 19]: TRUE
Pandda run, overall: Hit [2, 20]: TRUE
Total number of conformations [2]: 1
2*(1-BDC) (%) [2, 12]: 42%
X-ray crystallography: Binding site [2]: Adenosine
PanDDA run, DMSO background map: 1-BDC ([2]; soak concentration 10 mM): 0.34 and 0.31 and 0.21 and 0.26
PanDDA run, DMSO background map: Hit ([2]; soak concentration 10 mM): TRUE

O[C@@H]1COC[C@H]1Nc1ncnc2[nH]ccc12 [AVI-1443]
IC50 [1, 21]: > 1000 µM
Pandda run, overall: Modeling comment ([2]; crystal soak, soak concentration 5 mM): Weak density, not modeled
Pandda run, overall: Hit ([2]; crystal soak, soak concentration 5 mM, TRUE = ligand hit): TRUE
PanDDA run, DMSO background map: 1-BDC ([2]; soak concentration 5 mM): 0.05 and 0.04
PanDDA run, DMSO background map: Hit ([2]; soak concentration 5 mM): TRUE

O[C@H]1COC[C@@H]1Nc1ncnc2[nH]ccc12 [AVI-1444, (3R,4S)-4-((7H-pyrrolo[2,3-d]pyrimidin-4-yl)amino)tetrahydrofuran-3-ol]
IC50 [1, 21]: > 1000 µM
1-BDC [2]: 0.08
X-ray crystal structure [2, 22]: TRUE
Pandda run, overall: Modeled [2, 19]: TRUE
Pandda run, overall: Hit [2, 20]: TRUE
Total number of conformations [2]: 1
2*(1-BDC) (%) [2, 12]: 16%
Binding site [2, 23]: Adenosine
PanDDA run, DMSO background map: 1-BDC ([2]; soak concentration 10 mM): 0.08 and 0.11
PanDDA run, DMSO background map: Hit ([2]; soak concentration 10 mM): TRUE

OCC(Nc1ncnc2[nH]ccc12)C1CC1 (centres unmarked) [AVI-3651]
Hill slope ([1]; HTRF dose-response fit, Mac1): 1.2
Hill slope [1, 24]: 1.2
inhibition at 200 µM [1, 25]: 85%
inhibition at 200 µM [1, 4]: 85%
1-BDC [2]: 0.18
X-ray crystal structure [2, 22]: TRUE
Pandda run, overall: Hit [2, 26]: TRUE
Pandda run, overall: Modeled [2, 26]: TRUE
PanDDA run, DMSO background map: 1-BDC ([2]; crystal soak 10 mM): 0.18
PanDDA run, DMSO background map: Hit ([2]; crystal soak 10 mM): TRUE
Total number of conformations [2]: 1
2*(1-BDC) (%) [2, 12]: 36%
Binding site [2, 23]: Adenosine

O[C@H]1CC[C@@H]2CCN(c3ncnc4[nH]ccc34)[C@@H]21 [AVI-3664]
Hill slope ([1]; HTRF dose-response fit, Mac1): 1.2
inhibition at 200 µM [1, 18]: 93%
SARS CoV-2 macrodomain HTRF assay: Hillslope [1]: 1.2
inhibition at 200 µM [1, 4]: 93%
1-BDC [2]: 0.16
Pandda run, overall: Hit [2, 26]: TRUE
Pandda run, overall: Modeled [2, 26]: TRUE
PanDDA run, DMSO background map: 1-BDC ([2]; crystal soak 10 mM): 0.16
PanDDA run, DMSO background map: Hit ([2]; crystal soak 10 mM): TRUE
Total number of conformations [2]: 1
2*(1-BDC) (%) [2, 12]: 32%
X-ray crystallography: Binding site [2]: Adenosine

CCC(O)[C@H]1CCCN1c1ncnc2[nH]ccc12 (some centres unmarked) [AVI-3666]
Hill slope ([1]; HTRF dose-response fit, Mac1): 1.3
inhibition at 200 µM [1, 18]: 87%
IC50 ([1]; confirmatory dose-response, best fit value of 3-4 technical replicates, Fig. S3 prints the 95% confidence interval in brackets, read-out: HTRF IC50): 46 µM
SARS CoV-2 macrodomain HTRF assay: Hillslope [1]: 1.3
Ki ([1]; dose-response, read-out: SARS CoV-2 macrodomain HTRF assay: Ki): 43 µM
inhibition at 200 µM [1, 4]: 87%
1-BDC [2]: 0.3
Pandda run, overall: Hit [2, 26]: TRUE
Pandda run, overall: Modeled [2, 26]: TRUE
PanDDA run, DMSO background map: 1-BDC ([2]; crystal soak 10 mM): 0.3
PanDDA run, DMSO background map: Hit ([2]; crystal soak 10 mM): TRUE
Total number of conformations [2]: 1
2*(1-BDC) (%) [2, 12]: 60%
X-ray crystallography: Binding site [2]: Adenosine

O=C(O)C(F)(F)F.OCC1(Nc2ncnc3[nH]ccc23)CCC1 [AVI-3670]
Hill slope ([1]; HTRF dose-response fit, Mac1): 1.2
Hill slope [1, 24]: 1.2
inhibition at 200 µM [1, 25]: 87%
inhibition at 200 µM [1, 4]: 87%
1-BDC [2]: 0.18
X-ray crystal structure [2, 22]: TRUE
Pandda run, overall: Hit [2, 26]: TRUE
Pandda run, overall: Modeled [2, 26]: TRUE
PanDDA run, DMSO background map: 1-BDC ([2]; crystal soak 10 mM): 0.18
PanDDA run, DMSO background map: Hit ([2]; crystal soak 10 mM): TRUE
Total number of conformations [2]: 2
2*(1-BDC) (%) [2, 12]: 36%
Binding site [2, 23]: Adenosine
